Measurements: patent publication US20230263786A1, “MODULATION OF DRUG-DRUG INTERACTIONS OF VADADUSTAT” (Akebia Therapeutics, Inc., priority 2020, published 2023)
Where “and” joins values, the source holds several entries; their conditions need not be identical. Equal entries are not always repeated. Where two headings read alike, the source gives them in different places.

Assays:
[1] = system: hemoglobin concentration and red blood cell count; test: Hemoglobin concentration and red blood cell count after repeated dosing; assay type: in vivo, rat; settings: normal rats, repeated oral administration for 14 days
[2] = molecular target: T1, UGT1A1 (Homo sapiens, UniProt P22309); test: UGT1A1 inhibition in vitro; assay type: in vitro ADME
T1 sequence (P22309 26-533): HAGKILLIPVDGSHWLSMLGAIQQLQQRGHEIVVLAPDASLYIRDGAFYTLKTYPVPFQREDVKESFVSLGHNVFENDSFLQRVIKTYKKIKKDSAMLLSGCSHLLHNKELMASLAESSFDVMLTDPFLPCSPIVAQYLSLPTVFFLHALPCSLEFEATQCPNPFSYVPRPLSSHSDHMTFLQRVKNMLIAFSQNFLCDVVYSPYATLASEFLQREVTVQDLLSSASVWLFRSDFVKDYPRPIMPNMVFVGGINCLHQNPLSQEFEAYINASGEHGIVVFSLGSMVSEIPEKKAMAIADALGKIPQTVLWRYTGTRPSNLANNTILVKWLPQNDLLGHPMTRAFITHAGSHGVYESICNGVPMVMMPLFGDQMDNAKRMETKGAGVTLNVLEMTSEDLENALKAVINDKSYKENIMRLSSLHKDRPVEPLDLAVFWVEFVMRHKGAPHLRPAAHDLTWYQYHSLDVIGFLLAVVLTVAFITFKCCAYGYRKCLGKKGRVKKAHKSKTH

[3] = Phase I furosemide interaction study; assay type: in vivo, human; settings: furosemide 40 mg and vadadustat 600 mg once daily
Procedure: The study included 3 periods as follow: a 28-day screening period, 7-21 day in clinic period, and a 30-day follow up period post last dose.
On Days 3 to 6, subjects received vadadustat 600 mg (once daily).

[4] = Phase I single-dose study, moderate hepatic impairment versus normal hepatic function; assay type: in vivo, human; settings: for AUC(0-inf) / AUC(0-t) / Cmax / Vd/F / half-life / Tmax / CL renal: both sexes, human, oral, 450 mg; for AUC(0-inf) / AUC(0-t) / Cmax / Vd/F / half-life / Tmax: plasma; for half-life: read-out: Elimination Half-life (t1/2) (converted); for Tmax: median; for CL renal: urine, read-out: CLr, renal clearance (converted)
Procedure: A phase I, open-label, parallel-group, single-dose study was conducted to evaluate the pharmacokinetics (PK) of 450 mg vadadustat administered in adults with moderate hepatic impairment (Child-Pugh Class B) versus those with normal hepatic function. The pharmacokinetic (pK) parameters of Compound 1 were characterized. Safety and tolerability were assessed throughout the study.
Inclusion criteria: participants were male and female adults between 18 and 70 years of age, with either normal hepatic function or moderate hepatic impairment based on the Child-Pugh classification (Child-Pugh Class B [score 7-9]). Moderate hepatic impairment was defined by the presence and severity of elevated bilirubin levels, decreased serum albumin levels, elevated international normalized ratios >2.20, ascites, and hepatic encephalopathy.
Pharmacokinetics. […] PK parameters Ae0-72, Fe %0-72, and CL, were estimated from the urine concentration-time profiles.
8 subjects with hepatic impairment and 8 matched subjects with normal hepatic function were enrolled in the study. All subjects received a single oral 450-mg dose of vadadustat on Day 1 and were required to fast for at least 10 hours before dosing and for 4 hours after dosing.

[5] = Phase 1 oral iron interaction study, Cohort 3 (fasting): dried ferrous sulfate slow release; assay type: in vivo, human; settings: for AUC(0-inf) / AUC(0-t) / Cmax / half-life: male, human, plasma, oral; for AUC(0-inf): read-out: AUC(0-inf), LS geometric mean; for AUC(0-t): read-out: AUC(0-last), LS geometric mean; for Cmax: read-out: Cmax, LS geometric mean; for half-life: read-out: t1/2, LS geometric mean (converted)
Description: The study included 3 periods as follow: • Screening: performed within 4 weeks before the day of administration of the study drug. • Evaluation period: Cohort 1 was confined to the study site for 10-night, 11-day. Cohort 2 and Cohort 3 were confined to the study site for 7 nights and 8 days. • Post-administration tests: performed 3 days after administration of the last dose of the study drug.
In Cohort 3, 20 subjects were further randomized into 2 groups (10 subjects per group) and the evaluation period was divided into 2 periods during the study:
(§1) Administration of vadadustat tablets alone: after fasting for at least 10 hours, 1 vadadustat tablet (150 mg) would be taken orally with 200 mL of water (extra water may be drunk if more is needed when taking the tablet, and the extra volume would be recorded). Subjects would fast until the end of the collection of blood samples at 4 hours after administration of the study drug. Subjects would eat lunch over a period of 20 minutes after blood samples were collected at 4 hours after administration of the study drug. After lunch, subjects would fast until dinner, when they would eat dinner over a period of 20 minutes at 10 hours after administration of the study drug. Subjects would fast from dinner until breakfast the next morning.
as §1, with “and dried ferrous sulfate:” for “alone:”, “mg) and 2 tablets of dried ferrous sulfate (containing 210 mg of iron)” for “mg)”, “tablets,” for “tablet,”

[6] = single 450 mg, Moderate Hepatic Impairment, mean ± SD
[7] = single 450 mg, Moderate Hepatic Impairment
[8] = single 450 mg, Normal Liver Function, mean ± SD
[9] = single 450 mg, Normal Liver Function
[10] = 150 mg with dried ferrous sulfate slow release (210 mg iron), fasting

O=C(O)CNC(=O)c1ncc(-c2cccc(Cl)c2)cc1O [Compound 1, {[5-(3-chlorophenyl)-3-hydroxypyridine-2-carbonyl]amino}acetic acid]
hemoglobin concentration [1]: increasing | red blood cell count [1]: increasing | inhibitory effect on UGT1A1 [2]: inhibitory effect | serious TEAEs [3]: No serious TEAEs | AUC(0-inf) ([4]; AUC0-inf, Geometric LSM, Total Compound 1, single 450 mg, Moderate Hepatic Impairment): 414 µg·h/mL | AUC(0-inf) ([4]; AUC0-inf, Geometric LSM, Total Compound 1, single 450 mg, Normal Liver Function): 394 µg·h/mL | AUC(0-t) ([4]; AUC0-last, Geometric LSM, Total Compound 1, single 450 mg, Moderate Hepatic Impairment): 410 µg·h/mL | AUC(0-t) ([4]; AUC0-last, Geometric LSM, Total Compound 1, single 450 mg, Normal Liver Function): 389 µg·h/mL | Cmax ([4]; Cmax, Geometric LSM, Total Compound 1, single 450 mg, Moderate Hepatic Impairment): 52 µg/mL | Cmax ([4]; Cmax, Geometric LSM, Total Compound 1, single 450 mg, Normal Liver Function): 50 µg/mL | Vd/F ([4]; Volume of distribution (Vd/F), Unbound Compound 1, single 450 mg, Moderate Hepatic Impairment, mean ± SD): 1490 ± 542 L | Vd/F ([4]; Volume of distribution (Vd/F), Unbound Compound 1, single 450 mg, Normal Liver Function, mean ± SD): 1330 ± 222 L | AUC(0-inf) ([4]; single 450 mg, Moderate Hepatic Impairment, mean ± SD, read-out: AUC0-inf, plasma, total): 436 ± 156 µg·h/mL | AUC(0-t) ([4]; single 450 mg, Moderate Hepatic Impairment, mean ± SD, read-out: AUC0-last, plasma, total): 432 ± 153 µg·h/mL | Cmax ([4]; single 450 mg, Moderate Hepatic Impairment, mean ± SD, read-out: Cmax, plasma, total): 53 ± 12 µg/mL | half-life [4, 6]: 7.8 h | Vd/F ([4]; single 450 mg, Moderate Hepatic Impairment, mean ± SD, read-out: Volume of distribution (Vd/F), total): 12.3 ± 4 L | Tmax [4, 7]: 2 h | AUC(0-inf) ([4]; single 450 mg, Normal Liver Function, mean ± SD, read-out: AUC0-inf, plasma, total): 397 ± 72 µg·h/mL | AUC(0-t) ([4]; single 450 mg, Normal Liver Function, mean ± SD, read-out: AUC0-last, plasma, total): 395 ± 72 µg·h/mL | Cmax ([4]; single 450 mg, Normal Liver Function, mean ± SD, read-out: Cmax, plasma, total): 53 ± 15 µg/mL | half-life [4, 8]: 5.8 h | Vd/F ([4]; single 450 mg, Normal Liver Function, mean ± SD, read-out: Volume of distribution (Vd/F), total): 9.6 ± 1.9 L | Tmax [4, 9]: 2.5 h | CL renal [4, 7]: 0.105 mL/min | CL renal [4, 9]: 0.122 mL/min | impact of moderate hepatic impairment on total systemic exposure ([4]; single 450 mg): no significant impact on total systemic exposure | AUC0-inf, Geometric LSM, Unbound Compound 1 [4, 7]: 3.47 µg·h/mL | AUC0-last, Geometric LSM, Unbound Compound 1 [4, 7]: 3.44 µg·h/mL | Ae0-72, cumulative amount excreted in urine up to 72 hours [4, 7]: 2.45 ± 1.611 mg | Cmax, Geometric LSM, Unbound Compound 1 [4, 7]: 0.433 µg/mL | Fe%0-72, cumulative fraction excreted in urine [4, 7]: 0.545% and 0.545 ± 0.3580% | AUC0-inf, Unbound Compound 1 [4, 6]: 3.78 ± 1.738 µg·h/mL | AUC0-last, Unbound Compound 1 [4, 6]: 3.75 ± 1.709 µg·h/mL | Clearance (CL/F), Unbound Compound 1 [4, 6]: 140 ± 56.02 L/h | Clearance (CL/F), total [4, 6]: 1.2 ± 0.4 L/h | Cmax, Unbound Compound 1 [4, 6]: 0.451 ± 0.1332 µg/mL | Elimination Half-life (t1/2) [4, 6]: 7.75 ± 2.5 h | AUC0-inf, Geometric LSM, Unbound Compound 1 [4, 9]: 2.79 µg·h/mL | AUC0-last, Geometric LSM, Unbound Compound 1 [4, 9]: 2.78 µg·h/mL | Ae0-72, cumulative amount excreted in urine up to 72 hours [4, 9]: 2.76 ± 1.214 mg | Cmax, Geometric LSM, Unbound Compound 1 [4, 9]: 0.360 µg/mL | Fe%0-72, cumulative fraction excreted in urine [4, 9]: 0.614% and 0.614 ± 0.2698% | AUC0-inf, Unbound Compound 1 [4, 8]: 2.91 ± 0.9049 µg·h/mL | AUC0-last, Unbound Compound 1 [4, 8]: 2.90 ± 0.9001 µg·h/mL | Clearance (CL/F), Unbound Compound 1 [4, 8]: 167 ± 49.10 L/h | Clearance (CL/F), total [4, 8]: 1.2 ± 0.3 L/h | Cmax, Unbound Compound 1 [4, 8]: 0.378 ± 0.1131 µg/mL | Elimination Half-life (t1/2) [4, 8]: 5.81 ± 1.4 h | serious AEs ([4]; single 450 mg, both groups): No serious AEs | dose excreted in the urine as Compound 1 ([4]; single 450 mg, both moderate hepatic impairment and normal hepatic function): < 1% | Kel, LS geometric mean [5, 10]: 0.14 h⁻¹ | Kel, LS geometric mean ([5]; Compound 1 150 mg alone, fasting): 0.13 h⁻¹ | AUC(0-inf) ([5]; 150 mg): 128 µg·h/mL | AUC(0-t) ([5]; 150 mg): 124 µg·h/mL | Cmax ([5]; 150 mg): 26.5 µg/mL | half-life ([5]; 150 mg): 5.17 h | AUC(0-inf) [5, 10]: 13.2 µg·h/mL | AUC(0-t) [5, 10]: 12 µg·h/mL | Cmax [5, 10]: 2.14 µg/mL | half-life [5, 10]: 4.8 h
